Measured values: ChEMBL document CHEMBL1955733, “Optimization of 5-pyridazin-3-one phenoxypropylamines as potent, selective histamine H₃ receptor antagonists with potent cognition enhancing activity” (J Med Chem, 2012)
pIC50, pKi: −log10 of the molar value. Values after ≈ are worked out from the molar mass of the structure shown. One block for each compound: values may come before it. Active and inactive are the calls of the source. The rule behind the calls is not given here.

Key:
[1] = Clearance in Sprague-Dawley rat at 1 mg/kg, iv and 5 mg/kg, po; type: ADME, organism-based; details: in vivo
[2] = Half life in Sprague-Dawley rat at 1 mg/kg, iv and 5 mg/kg, po; type: ADME, organism-based; details: in vivo
[3] = target: Histamine H3 receptor (Rattus norvegicus, UniProt Q9QYN8); assay: Displacement of [3H]NAMH from rat cloned […] expressed in CHO cells; type: cell-based
[4] = target: Histamine H3 receptor (Homo sapiens, UniProt Q9Y5N1); assay: Displacement of [3H]NAMH from human cloned […] expressed in CHO cells; type: cell-based
[5] = Oral bioavailability in Sprague-Dawley rat at 5 mg/kg; type: ADME, organism-based; details: in vivo
[6] = Ratio of drug level in brain to plasma in Sprague-Dawley rat at 10 mg/kg, ip after 1 hr; type: ADME, organism-based; set-up: dose 10 mg/kg, route intraperitoneal; details: brain and plasma, read-out: BPR
[7] = Oral bioavailability in Sprague-Dawley rat at 10 mg/kg; type: ADME, organism-based; details: in vivo
[8] = tested on: Rattus norvegicus; assay: Cognitive effect in Sprague-Dawley rat social recognition model assessed as enhancement of short-term memory at 0.01 to 0.1 mg/kg, po measured after 120 mins; type: functional, organism-based
[9] = tested on: Mus musculus; assay: Toxicity in mouse assessed as changes in behavioral and physiologic state up to 300 mg/kg, po by Irwin test; type: organism-based; set-up: dose 300 mg/kg, route oral; details: in vivo
[10] = tested on: Salmonella typhimurium; assay: Mutagenic activity in Salmonella Typhimurium by Ames test; type: toxicity, organism-based; details: salmonella enterica subsp. enterica serovar typhimurium
[11] = Half life in Beagle dog at 1 mg/kg, iv and 3 mg/kg, po; type: ADME, organism-based, Canis lupus familiaris; details: in vivo
[12] = Half life in human; type: ADME, organism-based; details: in vivo
[13] = target: T1, Cytochrome P450 1A2 (Homo sapiens, UniProt P05177); assay: Inhibition of CYP1A2; type: ADME
T1 sequence (P05177 whole entry): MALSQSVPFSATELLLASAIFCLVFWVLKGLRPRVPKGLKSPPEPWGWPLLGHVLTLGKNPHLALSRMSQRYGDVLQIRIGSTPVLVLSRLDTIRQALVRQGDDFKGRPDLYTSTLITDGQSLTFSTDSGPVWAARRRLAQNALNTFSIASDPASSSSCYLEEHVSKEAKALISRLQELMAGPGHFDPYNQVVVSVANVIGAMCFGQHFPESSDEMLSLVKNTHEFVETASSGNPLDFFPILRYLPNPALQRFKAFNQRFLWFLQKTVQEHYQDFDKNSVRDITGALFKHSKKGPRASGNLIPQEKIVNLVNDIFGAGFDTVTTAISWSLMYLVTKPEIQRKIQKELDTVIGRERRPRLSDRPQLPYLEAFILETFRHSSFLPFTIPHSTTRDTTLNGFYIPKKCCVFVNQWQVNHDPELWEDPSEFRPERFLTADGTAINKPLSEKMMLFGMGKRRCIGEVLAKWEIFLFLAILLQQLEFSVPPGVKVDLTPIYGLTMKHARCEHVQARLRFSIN

[14] = target: Cytochrome P450 2C9 (Homo sapiens, UniProt P11712); assay: Inhibition of CYP2C9; type: ADME
[15] = target: Cytochrome P450 2C19 (Homo sapiens, UniProt P33261); assay: Inhibition of CYP2C19; type: ADME
[16] = target: Cytochrome P450 2D6 (Homo sapiens, UniProt P10635); assay: Inhibition of CYP2D6; type: ADME
[17] = target: Cytochrome P450 3A4 (Homo sapiens, UniProt P08684); assay: Inhibition of CYP3A4; type: ADME
[18] = Apparent permeability in human Caco2 cells; type: ADME, cell-based; details: Caco-2
[19] = Solubility of the compound in water at pH 2; type: physicochemical
[20] = Solubility of the compound in water at pH 7.4; type: physicochemical
[21] = Plasma protein binding in Sprague-Dawley rat; type: ADME, cell-free; details: read-out: PPB (converted)
[22] = Plasma protein binding in Beagle dog; type: ADME, cell-free, Canis lupus familiaris; details: read-out: PPB (converted)
[23] = Plasma protein binding in human; type: ADME, cell-free; details: read-out: PPB (converted)
[24] = Fraction unbound in Sprague-Dawley rat brain homogenate; type: ADME, tissue-based
[25] = Half life in Sprague-Dawley rat at 1 mg/kg, iv; type: ADME, organism-based; set-up: dose 1 mg/kg, route intravenous; details: in vivo
[26] = Half life in Beagle dog at 1 mg/kg, iv; type: ADME, organism-based, Canis lupus familiaris; set-up: dose 1 mg/kg, route intravenous; details: in vivo
[27] = Half life in cynomolgus monkey at 1 mg/kg, iv; type: ADME, organism-based, Macaca fascicularis; set-up: dose 1 mg/kg, route intravenous; details: in vivo
[28] = Volume of distribution in Sprague-Dawley rat at 1 mg/kg, iv and 10 mg/kg, po; type: ADME, organism-based; details: in vivo
[29] = Volume of distribution in Beagle dog at 1 mg/kg, iv and 3 mg/kg, po; type: ADME, organism-based, Canis lupus familiaris; details: in vivo
[30] = Volume of distribution in cynomolgus monkey at 1 mg/kg, iv and 3 mg/kg, po; type: ADME, organism-based, Macaca fascicularis; details: in vivo
[31] = Clearance in Sprague-Dawley rat at 1 mg/kg, iv and 10 mg/kg, po; type: ADME, organism-based; details: in vivo
[32] = Clearance in Beagle dog at 1 mg/kg, iv and 3 mg/kg, po; type: ADME, organism-based, Canis lupus familiaris; details: in vivo
[33] = Clearance in cynomolgus monkey at 1 mg/kg, iv and 3 mg/kg, po; type: ADME, organism-based, Macaca fascicularis; details: in vivo
[34] = AUC in Sprague-Dawley rat at 10 mg/kg, po; type: ADME, organism-based; set-up: dose 10 mg/kg, route oral; details: plasma
[35] = AUC in Beagle dog at 3 mg/kg, po; type: ADME, organism-based, Canis lupus familiaris; set-up: dose 3 mg/kg, route oral; details: plasma
[36] = AUC in cynomolgus monkey at 3 mg/kg, po; type: ADME, organism-based, Macaca fascicularis; set-up: dose 3 mg/kg, route oral; details: plasma
[37] = Cmax in Sprague-Dawley rat at 1 mg/kg, iv and 10 mg/kg, po; type: ADME, organism-based; details: in vivo
[38] = Cmax in Beagle dog at 1 mg/kg, iv and 3 mg/kg, po; type: ADME, organism-based, Canis lupus familiaris; details: in vivo
[39] = Cmax in cynomolgus monkey at 1 mg/kg, iv and 3 mg/kg, po; type: ADME, organism-based, Macaca fascicularis; details: in vivo
[40] = Half life in Sprague-Dawley rat at 1 mg/kg, iv and 10 mg/kg, po; type: ADME, organism-based; details: in vivo
[41] = Half life in cynomolgus monkey at 1 mg/kg, iv and 3 mg/kg, po; type: ADME, organism-based, Macaca fascicularis; details: in vivo
[42] = Oral bioavailability in Beagle dog at 3 mg/kg; type: ADME, organism-based, Canis lupus familiaris; details: in vivo
[43] = Oral bioavailability in cynomolgus monkey at 3 mg/kg; type: ADME, organism-based, Macaca fascicularis; details: in vivo
[44] = tested on: Rattus norvegicus; assay: Inhibition of RAMH-induced dispogenia in po dosed Long Evans rat measured for 30 mins; type: functional

Chain of Histamine H3 receptor (Rattus norvegicus, UniProt Q9QYN8) (Q9QYN8 whole entry): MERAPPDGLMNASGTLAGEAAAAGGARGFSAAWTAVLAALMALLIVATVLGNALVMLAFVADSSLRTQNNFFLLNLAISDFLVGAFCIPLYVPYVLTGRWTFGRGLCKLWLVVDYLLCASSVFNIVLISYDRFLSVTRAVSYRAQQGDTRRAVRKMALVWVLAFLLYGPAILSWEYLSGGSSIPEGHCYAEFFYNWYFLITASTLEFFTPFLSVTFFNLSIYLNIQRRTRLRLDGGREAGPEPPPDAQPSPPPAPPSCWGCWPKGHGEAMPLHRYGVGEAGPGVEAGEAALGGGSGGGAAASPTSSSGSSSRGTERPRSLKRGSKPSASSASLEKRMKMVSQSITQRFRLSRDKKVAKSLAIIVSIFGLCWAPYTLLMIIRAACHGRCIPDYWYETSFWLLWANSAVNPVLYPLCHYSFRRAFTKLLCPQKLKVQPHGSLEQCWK
Chain of Histamine H3 receptor (Homo sapiens, UniProt Q9Y5N1) (Q9Y5N1 whole entry): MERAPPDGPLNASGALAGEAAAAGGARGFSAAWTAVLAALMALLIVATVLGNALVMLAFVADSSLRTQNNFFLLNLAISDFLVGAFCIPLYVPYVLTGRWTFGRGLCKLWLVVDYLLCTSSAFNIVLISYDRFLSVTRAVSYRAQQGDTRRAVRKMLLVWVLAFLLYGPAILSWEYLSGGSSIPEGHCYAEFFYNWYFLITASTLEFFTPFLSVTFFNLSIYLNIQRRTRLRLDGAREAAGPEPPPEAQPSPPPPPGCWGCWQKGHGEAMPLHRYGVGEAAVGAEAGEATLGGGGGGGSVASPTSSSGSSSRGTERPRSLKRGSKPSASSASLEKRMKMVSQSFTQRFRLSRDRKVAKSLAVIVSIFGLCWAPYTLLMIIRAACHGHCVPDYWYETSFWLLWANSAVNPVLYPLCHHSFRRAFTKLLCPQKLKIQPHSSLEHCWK
Chain of Cytochrome P450 2C19 (P33261 whole entry): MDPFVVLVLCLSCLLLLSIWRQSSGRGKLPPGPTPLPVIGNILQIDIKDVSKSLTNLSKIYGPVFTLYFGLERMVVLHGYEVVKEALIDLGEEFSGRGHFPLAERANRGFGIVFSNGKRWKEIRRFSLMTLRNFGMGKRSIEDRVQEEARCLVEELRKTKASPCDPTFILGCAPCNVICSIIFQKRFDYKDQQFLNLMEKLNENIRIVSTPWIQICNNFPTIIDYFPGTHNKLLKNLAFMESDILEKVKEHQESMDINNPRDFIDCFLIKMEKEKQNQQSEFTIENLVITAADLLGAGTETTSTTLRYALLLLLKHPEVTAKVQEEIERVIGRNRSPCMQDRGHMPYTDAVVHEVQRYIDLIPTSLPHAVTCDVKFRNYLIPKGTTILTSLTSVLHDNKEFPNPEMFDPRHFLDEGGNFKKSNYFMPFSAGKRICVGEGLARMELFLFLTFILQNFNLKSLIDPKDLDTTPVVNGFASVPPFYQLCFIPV
Chain of Cytochrome P450 2D6 (P10635 whole entry): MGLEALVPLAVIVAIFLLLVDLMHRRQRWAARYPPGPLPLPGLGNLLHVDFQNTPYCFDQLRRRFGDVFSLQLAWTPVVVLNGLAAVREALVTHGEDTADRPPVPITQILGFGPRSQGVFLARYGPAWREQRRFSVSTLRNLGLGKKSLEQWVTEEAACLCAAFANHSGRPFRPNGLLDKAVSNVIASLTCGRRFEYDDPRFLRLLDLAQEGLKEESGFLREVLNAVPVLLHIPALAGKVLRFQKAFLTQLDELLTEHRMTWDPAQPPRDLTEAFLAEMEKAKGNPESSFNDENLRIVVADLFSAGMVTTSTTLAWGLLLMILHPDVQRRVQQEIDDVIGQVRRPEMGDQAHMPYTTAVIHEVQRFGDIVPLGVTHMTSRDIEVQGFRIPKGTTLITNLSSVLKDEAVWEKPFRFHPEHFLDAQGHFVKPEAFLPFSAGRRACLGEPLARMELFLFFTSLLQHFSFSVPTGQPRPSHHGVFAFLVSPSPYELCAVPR
Chain of Cytochrome P450 2C9 (P11712 whole entry): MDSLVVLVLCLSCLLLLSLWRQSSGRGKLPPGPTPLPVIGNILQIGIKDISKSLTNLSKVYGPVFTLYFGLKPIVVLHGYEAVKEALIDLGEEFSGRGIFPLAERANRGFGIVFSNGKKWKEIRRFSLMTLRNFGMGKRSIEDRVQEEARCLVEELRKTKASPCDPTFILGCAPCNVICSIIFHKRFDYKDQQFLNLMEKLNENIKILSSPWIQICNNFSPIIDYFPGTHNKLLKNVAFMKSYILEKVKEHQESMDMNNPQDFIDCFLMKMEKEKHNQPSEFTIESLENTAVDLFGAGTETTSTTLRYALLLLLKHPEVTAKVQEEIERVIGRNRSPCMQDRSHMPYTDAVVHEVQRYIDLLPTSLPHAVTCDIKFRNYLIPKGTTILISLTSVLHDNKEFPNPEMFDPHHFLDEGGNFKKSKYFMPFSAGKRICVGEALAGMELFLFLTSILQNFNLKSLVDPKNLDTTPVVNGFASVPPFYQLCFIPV
Chain of Cytochrome P450 3A4 (P08684 whole entry): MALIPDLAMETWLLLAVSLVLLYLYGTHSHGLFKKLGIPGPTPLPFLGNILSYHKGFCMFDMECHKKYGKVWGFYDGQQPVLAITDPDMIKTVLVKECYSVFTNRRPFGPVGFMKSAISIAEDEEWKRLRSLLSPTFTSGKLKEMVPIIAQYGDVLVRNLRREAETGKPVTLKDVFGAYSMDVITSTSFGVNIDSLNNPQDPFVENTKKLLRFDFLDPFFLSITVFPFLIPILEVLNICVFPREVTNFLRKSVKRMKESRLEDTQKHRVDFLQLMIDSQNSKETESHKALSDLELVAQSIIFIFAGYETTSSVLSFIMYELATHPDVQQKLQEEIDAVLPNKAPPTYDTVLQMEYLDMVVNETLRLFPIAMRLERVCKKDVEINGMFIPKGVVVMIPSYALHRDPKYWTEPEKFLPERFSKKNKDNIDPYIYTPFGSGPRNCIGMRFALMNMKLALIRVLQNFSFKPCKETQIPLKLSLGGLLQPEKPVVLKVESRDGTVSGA

Structure (SMILES): Cn1ncc(-c2ccc(OCCCN3CCCCC3)cc2)cc1=O
- clearance [1]: 4.5 L/h/kg
- half-life [2]: 0.6 h
- pKi [3]: 7.52
- pKi [4]: 7.89
- bioavailability [5]: 40%
- Kp at 1 h [6]: 5.3

Structure (SMILES): Cc1n[nH]c(=O)cc1-c1ccc(OCCCN2CCCCCC2)cc1
- clearance [1]: 3.24 L/h/kg
- half-life [2]: 1 h
- pKi [3]: 8.12
- pKi [4]: 8.32
- bioavailability [5]: 25%
- Kp at 1 h [6]: 1.2

Structure (SMILES): C[C@@H]1CCCN1CCCOc1ccc(-c2cnn(-c3ccccn3)c(=O)c2)cc1
- Activity [8]: Active
- Activity [9]: Non-toxic
- Activity [10]: Toxic
- clearance [1]: 1.14 L/h/kg
- half-life [2]: 1.7 h
- bioavailability [7]: 78%
- Kp at 1 h [6]: 1.1
- half-life [11]: 0.8 h
- half-life [12]: > 0.667 h
- pIC50 [13]: < 4.52
- pIC50 [14]: < 4.52
- pIC50 [15]: < 4.52
- pIC50 [16]: < 4.52
- pIC50 [17]: < 4.52
- Papp [18]: 137 nm/s
- solubility [19]: 1.4 mg/mL (≈ 3590 µM)
- solubility [20]: 0.9 mg/mL (≈ 2300 µM)
- fraction unbound [21]: 0.55
- fraction unbound [22]: 0.68
- fraction unbound [23]: 0.56
- fraction unbound [24]: 0.39
- half-life [25]: 1.7 h
- half-life [26]: 3.6 h
- half-life [27]: 3.9 h
- Vd [28]: 3 L/kg
- Vd [29]: 5.9 L/kg
- Vd [30]: 7.1 L/kg
- clearance [31]: 1.2 L/h/kg
- clearance [32]: 1.14 L/h/kg
- clearance [33]: 1.26 L/h/kg
- AUC [34]: 6.8 µg·h/mL
- AUC [35]: 2.4 µg·h/mL
- AUC [36]: 2.08 µg·h/mL
- Cmax [37]: 0.898 µg/mL
- Cmax [38]: 0.417 µg/mL
- Cmax [39]: 0.326 µg/mL
- half-life [40]: 4.5 h
- half-life [41]: 6.5 h
- bioavailability [42]: 92%
- bioavailability [43]: 96%
- inhibition [44]: Dose-dependent effect
- ED50 ([44]; 0.5 h): 0.07 mg/kg

Structure (SMILES): Cc1cccnc1-n1ncc(-c2ccc(OCCCN3CCC[C@H]3C)cc2)cc1=O
- clearance [1]: 2.04 L/h/kg
- half-life [2]: 1.8 h
- pKi [3]: 8.07
- pKi [4]: 8.60
- bioavailability [5]: 30%
- Kp at 1 h [6]: 0.2

Structure (SMILES): Cc1n[nH]c(=O)cc1-c1ccc(OCCCN2CCCCC2)cc1
- clearance [1]: 1.8 L/h/kg
- half-life [2]: 0.8 h
- pKi [3]: 7.64
- pKi [4]: 8.10
- bioavailability [5]: 28%
- Kp at 1 h [6]: 1.3

Structure (SMILES): Cc1nn(C)c(=O)cc1-c1ccc(OCCCN2CCCCC2)cc1
- clearance [1]: 2.88 L/h/kg
- half-life [2]: 1.6 h
- pKi [3]: 7.74
- pKi [4]: 8.05
- bioavailability [5]: 69%
- Kp at 1 h [6]: 2.4

Structure (SMILES): Cn1ncc(-c2ccc(OCCCN3CCCCCC3)cc2)cc1=O
- pKi [3]: 7.66
- pKi [4]: 8.09

Next, values leading:

- pKi [3]: 8.07
- bioavailability [7]: 83%
- Kp at 1 h [6]: 2.6
Structure (SMILES): C[C@@H]1CCCN1CCCOc1ccc(-c2ccc(=O)[nH]n2)cc1 [IRDABISANT]

- clearance [1]: 1.5 L/h/kg
- half-life [2]: 1.4 h
- pKi [3]: 8.29
- pKi [4]: 8.80
- bioavailability [5]: 20%
- Kp at 1 h [6]: 1.6
Structure (SMILES): Cc1n[nH]c(=O)cc1-c1ccc(OCCCN2CCC[C@H]2C)cc1

- clearance [1]: 0.72 L/h/kg
- half-life [2]: 0.3 h
- pKi [3]: 8.15
- pKi [4]: 8.57
- bioavailability [5]: 1%
- Kp at 1 h [6]: 5.1
Structure (SMILES): CC(C)n1ncc(-c2ccc(OCCCN3CCC[C@H]3C)cc2)cc1=O
